As a reminder, the Kd is the free concentration of one partner at which half of the binding sites on the other are occupied at equilibrium, for simple one-to-one binding.

Where no end group is shown, it is not given here.

The values that follow come from PMC9406199, “Conformational Plasticity of Centrin 1 from Toxoplasma gondii in Binding to the Centrosomal Protein SFI1” (Biomolecules, 2022).

Assay [1] deals with TgSFI1 R16 peptide R16 (Toxoplasma gondii) (UniProt S8F258). Nature of the assay: ITC. (In general: In ITC the heat of successive injections is recorded.)
In assay [2] the target is T1, C-TgCEN1 (C-terminal domain, 95–169 aa) (Toxoplasma gondii, UniProt A0A125YHX7).
T1 construct: C-terminal (C-TgCEN1, 95–169 aa); made in house
Nature of the assay: ITC titration of TgSFI1 peptides into C-TgCEN1. It is filed as binding. The following applies: SEM; for n (stoichiometry of binding) / ΔH / Kd: 25 °C; for n (stoichiometry of binding) / Kd: 50 mM Tris-HCl; for TΔS: T 298 K. The protocol: (§1) The recombinant TgCEN1 (lacking the first 21 residues) and its N-terminal (N-TgCEN1, 22–94 aa) and C-terminal (C-TgCEN1, 95–169 aa) domains were purified as previously described. The TgSFI1 peptides were synthesized by GenScript U.S.A. Inc. (Piscataway, NJ, USA). The concentration of each peptide was determined using their predicted molar extinction coefficient at 280 nm.
(§2) Isothermal titration calorimetry (ITC) experiments were performed on a MicroCal PEAQ-ITC instrument (Malvern Ltd., Malvern, UK) at 25 °C. Protein samples and peptides were solubilized in the same buffer containing 50 mM Tris–HCl, 150 mM KCl pH 7.5 and 5 mM CaCl2 or 5 mM EGTA. All the samples were filtered and degassed before use, and the pH was carefully determined to exclude any possible pH-related effect on ITC experiments.
(§3) A typical ITC experiment was performed by titrating 200 μL of a 30–50 μM protein solution with a 1 or 1.5 μL injection of 0.3–0.5 mM peptide (total injections 39 or 26, respectively) with an initial delay of 120 s and keeping a time gap of 120 s between injections. A reference injection of peptide into buffer without centrin was performed and subtracted from each experiment. The resulting curves were fitted to calculate apparent dissociation constants Kd, enthalpy changes (ΔH), and the apparent entropy change (ΔS) using the software MicroCal ITC Origin 7 Analysis Software (MicroCal, Malvern Ltd., Malvern, UK). All measurements were repeated in triplicate using at least two different protein preparations and the error was calculated as the mean standard error of the three measurements.

Assay [3] addresses T2, N-TgCEN1 (N-terminal domain, 22–94 aa) (Toxoplasma gondii, UniProt A0A125YHX7).
T2 construct: N-terminal (N-TgCEN1, 22–94 aa); made in house
Nature of the assay: ITC titration of TgSFI1 peptides into N-TgCEN1. It counts as binding. The following applies: SEM. The protocol: as §1, §2, §3

Assay [4] has as its target T3, TgCEN1 (recombinant, lacking the first 21 residues) (Toxoplasma gondii, UniProt A0A125YHX7).
T3 construct: TgCEN1 (lacking the first 21 residues) and its N-terminal (N-TgCEN1, 22–94 aa) and C-terminal (C-TgCEN1, 95–169 aa) domains; made in house
Nature of the assay: ITC titration of TgSFI1 peptides into TgCEN1. It counts as binding. Particulars: for TΔS: T 298 K. As to the method:
as §1, §2, §3

The mark [5] stands for this setting: 150 mM KCl pH 7.5, 5 mM CaCl2, mean ± SE of triplicate.
[6] abbreviates: pH 7.5, 5 mM CaCl2, mean ± SE of triplicate.
Where [7] appears, read: pH 7.5, 5 mM EGTA, mean ± SE of triplicate.
The mark [8] stands for this setting: 25 °C, 50 mM Tris-HCl, 150 mM KCl pH 7.5, 5 mM CaCl2, first site (n1) of two-step binding, mean ± SE of triplicate, SEM.
[9] abbreviates: 25 °C, 50 mM Tris-HCl, 150 mM KCl pH 7.5, 5 mM CaCl2, second site (n2) of two-step binding, mean ± SE of triplicate, SEM.
Where [10] appears, read: 25 °C, 50 mM Tris-HCl, 150 mM KCl pH 7.5, 5 mM CaCl2, single binding site, mean ± SE of triplicate, SEM.
Where [11] appears, read: Ca2+-bound TgCEN1, single exothermic event, order of magnitude in text.
The mark [12] stands for this setting: 150 mM KCl pH 7.5, 5 mM EGTA, mean ± SE of triplicate, dash = no binding observed.
The mark [13] stands for this setting: 25 °C, 50 mM Tris-HCl, 150 mM KCl pH 7.5, 5 mM EGTA, mean ± SE of triplicate, dash = no binding observed, SEM.

T1 sequence (A0A125YHX7 95-169): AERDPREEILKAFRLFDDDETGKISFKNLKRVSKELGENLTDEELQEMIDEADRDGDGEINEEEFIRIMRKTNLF
T3 sequence (A0A125YHX7 22-169): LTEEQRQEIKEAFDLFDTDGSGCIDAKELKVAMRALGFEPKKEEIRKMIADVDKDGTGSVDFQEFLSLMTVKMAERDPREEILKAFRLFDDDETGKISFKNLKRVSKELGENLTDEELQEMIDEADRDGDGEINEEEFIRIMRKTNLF
T2 sequence (A0A125YHX7 22-94): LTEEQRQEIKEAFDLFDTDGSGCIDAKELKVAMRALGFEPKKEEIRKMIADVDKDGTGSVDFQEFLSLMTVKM
Chain of TgCEN1 (A0A125YHX7 whole entry): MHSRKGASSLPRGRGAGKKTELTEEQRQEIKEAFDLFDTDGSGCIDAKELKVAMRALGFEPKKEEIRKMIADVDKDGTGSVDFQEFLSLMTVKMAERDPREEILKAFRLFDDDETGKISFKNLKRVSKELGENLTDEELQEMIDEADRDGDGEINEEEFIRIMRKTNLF
Chain of TgSFI1 R16 peptide R16 (Toxoplasma gondii) (S8F258 whole entry, the tested form may be a part): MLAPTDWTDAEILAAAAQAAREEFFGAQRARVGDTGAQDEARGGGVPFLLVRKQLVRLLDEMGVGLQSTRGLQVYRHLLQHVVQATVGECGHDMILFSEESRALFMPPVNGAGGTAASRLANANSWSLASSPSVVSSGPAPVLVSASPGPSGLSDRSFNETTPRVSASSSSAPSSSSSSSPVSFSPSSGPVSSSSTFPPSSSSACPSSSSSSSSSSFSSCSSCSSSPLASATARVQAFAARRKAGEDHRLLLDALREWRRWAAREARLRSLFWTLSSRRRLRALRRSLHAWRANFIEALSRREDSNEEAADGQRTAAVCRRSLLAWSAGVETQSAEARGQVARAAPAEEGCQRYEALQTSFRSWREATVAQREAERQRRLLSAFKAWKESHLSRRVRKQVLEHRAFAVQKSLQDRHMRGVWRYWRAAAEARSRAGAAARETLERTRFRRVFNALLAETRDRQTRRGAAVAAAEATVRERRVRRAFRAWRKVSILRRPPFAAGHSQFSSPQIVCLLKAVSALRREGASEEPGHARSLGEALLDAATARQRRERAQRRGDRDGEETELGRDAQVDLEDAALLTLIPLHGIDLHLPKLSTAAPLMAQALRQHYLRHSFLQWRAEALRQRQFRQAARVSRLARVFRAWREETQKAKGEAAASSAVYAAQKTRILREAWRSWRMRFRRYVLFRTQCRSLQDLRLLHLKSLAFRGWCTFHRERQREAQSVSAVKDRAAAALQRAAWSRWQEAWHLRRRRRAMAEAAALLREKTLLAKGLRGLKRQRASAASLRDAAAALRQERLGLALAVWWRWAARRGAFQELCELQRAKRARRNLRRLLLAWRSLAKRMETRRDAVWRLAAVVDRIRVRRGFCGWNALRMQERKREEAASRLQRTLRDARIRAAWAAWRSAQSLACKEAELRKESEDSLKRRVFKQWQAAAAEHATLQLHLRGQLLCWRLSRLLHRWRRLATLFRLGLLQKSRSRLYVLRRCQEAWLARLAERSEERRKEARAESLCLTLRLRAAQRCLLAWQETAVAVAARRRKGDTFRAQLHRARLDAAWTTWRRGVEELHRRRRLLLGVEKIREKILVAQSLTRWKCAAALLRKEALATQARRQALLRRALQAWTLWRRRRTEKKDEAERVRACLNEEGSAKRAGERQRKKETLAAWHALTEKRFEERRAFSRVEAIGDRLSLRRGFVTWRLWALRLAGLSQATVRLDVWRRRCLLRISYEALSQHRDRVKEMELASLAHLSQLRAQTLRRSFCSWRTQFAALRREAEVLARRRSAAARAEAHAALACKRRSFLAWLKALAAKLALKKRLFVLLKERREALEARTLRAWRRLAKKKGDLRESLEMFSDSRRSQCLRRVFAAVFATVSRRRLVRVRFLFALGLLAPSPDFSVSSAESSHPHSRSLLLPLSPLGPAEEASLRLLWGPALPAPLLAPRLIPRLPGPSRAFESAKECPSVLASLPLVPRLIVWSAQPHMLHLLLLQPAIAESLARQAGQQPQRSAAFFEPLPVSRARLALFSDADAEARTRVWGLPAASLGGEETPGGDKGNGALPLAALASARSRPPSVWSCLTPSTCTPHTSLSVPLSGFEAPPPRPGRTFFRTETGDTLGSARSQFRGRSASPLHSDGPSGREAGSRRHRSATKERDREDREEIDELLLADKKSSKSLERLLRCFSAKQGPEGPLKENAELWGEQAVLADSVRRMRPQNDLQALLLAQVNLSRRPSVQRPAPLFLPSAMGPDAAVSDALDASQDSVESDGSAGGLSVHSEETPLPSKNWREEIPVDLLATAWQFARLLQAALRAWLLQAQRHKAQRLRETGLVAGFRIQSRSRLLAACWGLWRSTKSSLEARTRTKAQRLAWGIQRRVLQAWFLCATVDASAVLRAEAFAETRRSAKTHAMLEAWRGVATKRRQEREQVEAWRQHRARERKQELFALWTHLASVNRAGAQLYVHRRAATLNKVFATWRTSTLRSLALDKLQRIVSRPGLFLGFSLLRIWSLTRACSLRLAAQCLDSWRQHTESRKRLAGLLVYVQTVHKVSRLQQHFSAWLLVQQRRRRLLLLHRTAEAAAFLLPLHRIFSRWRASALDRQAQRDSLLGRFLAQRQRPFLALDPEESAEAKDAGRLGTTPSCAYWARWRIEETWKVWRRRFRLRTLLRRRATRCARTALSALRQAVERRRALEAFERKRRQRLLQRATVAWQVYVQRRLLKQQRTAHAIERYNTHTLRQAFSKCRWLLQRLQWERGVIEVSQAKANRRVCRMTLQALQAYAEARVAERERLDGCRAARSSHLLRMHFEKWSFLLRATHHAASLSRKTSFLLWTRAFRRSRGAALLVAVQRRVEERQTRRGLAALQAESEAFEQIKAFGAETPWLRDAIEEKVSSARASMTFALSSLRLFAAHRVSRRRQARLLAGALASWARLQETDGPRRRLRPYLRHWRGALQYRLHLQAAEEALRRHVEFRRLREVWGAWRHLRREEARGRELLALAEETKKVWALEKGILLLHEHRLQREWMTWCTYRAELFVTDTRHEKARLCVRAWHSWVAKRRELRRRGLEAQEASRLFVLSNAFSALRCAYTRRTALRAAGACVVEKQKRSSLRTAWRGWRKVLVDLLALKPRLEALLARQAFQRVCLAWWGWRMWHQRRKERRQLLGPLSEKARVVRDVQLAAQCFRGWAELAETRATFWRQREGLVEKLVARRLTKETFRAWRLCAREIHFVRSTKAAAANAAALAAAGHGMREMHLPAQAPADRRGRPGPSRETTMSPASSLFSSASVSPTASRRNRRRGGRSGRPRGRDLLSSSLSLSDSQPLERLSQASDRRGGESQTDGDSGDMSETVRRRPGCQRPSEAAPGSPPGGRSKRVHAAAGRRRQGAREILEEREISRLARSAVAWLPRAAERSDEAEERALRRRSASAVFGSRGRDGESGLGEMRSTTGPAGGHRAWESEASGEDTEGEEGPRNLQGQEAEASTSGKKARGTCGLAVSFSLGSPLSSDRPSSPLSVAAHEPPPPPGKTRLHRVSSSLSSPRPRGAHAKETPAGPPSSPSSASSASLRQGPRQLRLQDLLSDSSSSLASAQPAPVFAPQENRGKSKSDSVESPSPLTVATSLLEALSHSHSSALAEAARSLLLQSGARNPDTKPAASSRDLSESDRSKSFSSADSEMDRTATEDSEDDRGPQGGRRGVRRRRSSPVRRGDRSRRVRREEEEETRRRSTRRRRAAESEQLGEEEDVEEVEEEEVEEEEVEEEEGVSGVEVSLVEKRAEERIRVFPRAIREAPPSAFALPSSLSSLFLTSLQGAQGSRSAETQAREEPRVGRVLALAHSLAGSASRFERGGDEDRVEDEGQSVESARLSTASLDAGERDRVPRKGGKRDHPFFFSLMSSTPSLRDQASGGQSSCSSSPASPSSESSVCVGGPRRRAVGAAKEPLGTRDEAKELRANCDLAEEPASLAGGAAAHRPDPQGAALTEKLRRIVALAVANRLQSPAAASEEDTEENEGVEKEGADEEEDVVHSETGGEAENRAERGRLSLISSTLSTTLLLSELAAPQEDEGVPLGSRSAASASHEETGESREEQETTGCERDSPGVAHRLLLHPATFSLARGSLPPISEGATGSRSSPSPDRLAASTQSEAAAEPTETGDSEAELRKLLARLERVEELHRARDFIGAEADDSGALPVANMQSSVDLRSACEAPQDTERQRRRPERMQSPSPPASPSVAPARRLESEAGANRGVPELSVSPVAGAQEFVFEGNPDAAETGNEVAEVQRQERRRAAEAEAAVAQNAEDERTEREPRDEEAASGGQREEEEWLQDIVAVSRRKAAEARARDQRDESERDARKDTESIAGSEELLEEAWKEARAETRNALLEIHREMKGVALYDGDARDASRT

In assay [1], TgCEN1 (from UniProt A0A125YHX7) showed a dissociation constant Kd of 9 nM.

For the substance LQRAKRARRNLRRLLLAWRS [R10], the “n (stoichiometry of binding)” value in assay [2] (setting [5]) came out at 0.7 ± 0.1; in assay [2] (150 mM KCl pH 7.5, 5 mM EGTA, mean ± SE of triplicate), 0.7 ± 0.1; in assay [3] (25 °C, 50 mM Tris-HCl, 150 mM KCl pH 7.5, 5 mM CaCl2, mean ± SE of triplicate), 0.7 ± 0.1; in assay [4] (25 °C, 50 mM Tris-HCl, 150 mM KCl pH 7.5, 5 mM EGTA, mean ± SE of triplicate, SEM), 0.8 ± 0.1. Also, the ΔH is -15.8 ± 0.1 kcal/mol in assay [2] (setting [6]); -19.3 ± 0.1 kcal/mol in assay [2] (setting [7]); -12.6 ± 0.9 kcal/mol in assay [3] (25 °C, pH 7.5, 5 mM CaCl2, mean ± SE of triplicate); -19.1 ± 0.4 kcal/mol in assay [4] (25 °C, pH 7.5, 5 mM CaCl2, first site (n1), mean ± SE of triplicate, SEM); -12.1 ± 0.3 kcal/mol in assay [4] (25 °C, pH 7.5, 5 mM CaCl2, second site (n2), mean ± SE of triplicate, SEM); -24.7 ± 0.4 kcal/mol in assay [4] (25 °C, pH 7.5, 5 mM EGTA, mean ± SE of triplicate, SEM). For the same substance, the TΔS in assay [2] (setting [6]) was -5.5 ± 0.5 kcal/mol; in assay [2] (setting [7]), -11.5 ± 0.7 kcal/mol; in assay [3] (T 298 K, pH 7.5, 5 mM CaCl2, mean ± SE of triplicate) it was -4.4 ± 1.0 kcal/mol; in assay [4] (pH 7.5, 5 mM CaCl2, first site (n1), mean ± SE of triplicate, SEM) it was -6.3 ± 0.4 kcal/mol; in assay [4] (pH 7.5, 5 mM CaCl2, second site (n2), mean ± SE of triplicate, SEM), -4.4 ± 0.3 kcal/mol; in assay [4] (pH 7.5, 5 mM EGTA, mean ± SE of triplicate, SEM), -16.4 ± 0.4 kcal/mol. Besides, the “n (stoichiometry of binding), n1” value in assay [4] (setting [8]) is given as “n1 = 0.7 ± 0.1”. Also, the “n (stoichiometry of binding), n2” value in assay [4] (setting [9]) is “n2 = 0.9 ± 0.1”.

As to VVEKQKRSSLRTAWRGWR [R31], the figures for the Kd in assay [2] (setting [5]), in assay [4] (setting [10]) and in assay [4] (setting [11]) were 1900 ± 100 nM, 2900 ± 100 nM and ~1000 nM, respectively.

Turning to AEATVRERRVRRAFRAWR [R5], the equilibrium dissociation constant (Kd) was determined as 900 ± 100 nM in assay [2] (setting [5]), 47800 ± 4900 nM in assay [2] (setting [12]), 500 ± 100 nM in assay [4] (setting [10]) and 36900 ± 6600 nM in assay [4] (setting [13]).

Regarding LATQARRQALLRRALQAWTL [R16], the Kd in assay [2] (setting [5]) worked out at 6 ± 1 nM; in assay [2] (setting [12]) it was 9100 ± 800 nM; in assay [3] (25 °C, 50 mM Tris-HCl, 150 mM KCl pH 7.5, 5 mM CaCl2, mean ± SE of triplicate, dash = no binding observed) it was 400 ± 100 nM; in assay [4] (setting [8]), 9 ± 1 nM; in assay [4] (setting [9]), 500 ± 100 nM; in assay [4] (setting [13]), 3400 ± 300 nM.

On to AEAAAFLLPLHRIFSRWR [R24], for which the equilibrium dissociation constant (Kd) in assay [2] (setting [5]) is 2600 ± 300 nM; in assay [4] (setting [10]), 3400 ± 600 nM; in assay [4] (setting [11]), ~1000 nM.

Take LQRTLRDARIRAAWAAWR [R12]: the Kd came out at 400 ± 100 nM in assay [2] (setting [5]), 69900 ± 7000 nM in assay [2] (setting [12]), 500 ± 100 nM in assay [4] (setting [10]) and 29800 ± 3400 nM in assay [4] (setting [13]).

RVEAIGDRLSLRRGFVTWRL [R17]: the equilibrium dissociation constant (Kd) in assay [2] (setting [5]) worked out at 2700 ± 100 nM; in assay [4] (setting [10]), 800 ± 200 nM.
